In patent US20240262812A1, “N-SUBSTITUTED PHENYLSULFONAMIDE COMPOUND AND USE THEREOF” (Shanghai Leado Pharmatech Co., Ltd., priority 2021, published 2024):

These compounds were tested against T1, mTRPA1 (Mus musculus, UniProt Q8BLA8) (assay: IonWorks Barracuda (IWB) automated patch clamp, TRPA1 inhibitory activity). Conditions: HEK293 cells stably expressing mTRPA1, current induced by AITC, amplitude at +100 mV; read-out: IC50 (inhibition activity on TRPA1).
T1 construct: expressed in transfected cells
T1 sequence (Q8BLA8 whole entry): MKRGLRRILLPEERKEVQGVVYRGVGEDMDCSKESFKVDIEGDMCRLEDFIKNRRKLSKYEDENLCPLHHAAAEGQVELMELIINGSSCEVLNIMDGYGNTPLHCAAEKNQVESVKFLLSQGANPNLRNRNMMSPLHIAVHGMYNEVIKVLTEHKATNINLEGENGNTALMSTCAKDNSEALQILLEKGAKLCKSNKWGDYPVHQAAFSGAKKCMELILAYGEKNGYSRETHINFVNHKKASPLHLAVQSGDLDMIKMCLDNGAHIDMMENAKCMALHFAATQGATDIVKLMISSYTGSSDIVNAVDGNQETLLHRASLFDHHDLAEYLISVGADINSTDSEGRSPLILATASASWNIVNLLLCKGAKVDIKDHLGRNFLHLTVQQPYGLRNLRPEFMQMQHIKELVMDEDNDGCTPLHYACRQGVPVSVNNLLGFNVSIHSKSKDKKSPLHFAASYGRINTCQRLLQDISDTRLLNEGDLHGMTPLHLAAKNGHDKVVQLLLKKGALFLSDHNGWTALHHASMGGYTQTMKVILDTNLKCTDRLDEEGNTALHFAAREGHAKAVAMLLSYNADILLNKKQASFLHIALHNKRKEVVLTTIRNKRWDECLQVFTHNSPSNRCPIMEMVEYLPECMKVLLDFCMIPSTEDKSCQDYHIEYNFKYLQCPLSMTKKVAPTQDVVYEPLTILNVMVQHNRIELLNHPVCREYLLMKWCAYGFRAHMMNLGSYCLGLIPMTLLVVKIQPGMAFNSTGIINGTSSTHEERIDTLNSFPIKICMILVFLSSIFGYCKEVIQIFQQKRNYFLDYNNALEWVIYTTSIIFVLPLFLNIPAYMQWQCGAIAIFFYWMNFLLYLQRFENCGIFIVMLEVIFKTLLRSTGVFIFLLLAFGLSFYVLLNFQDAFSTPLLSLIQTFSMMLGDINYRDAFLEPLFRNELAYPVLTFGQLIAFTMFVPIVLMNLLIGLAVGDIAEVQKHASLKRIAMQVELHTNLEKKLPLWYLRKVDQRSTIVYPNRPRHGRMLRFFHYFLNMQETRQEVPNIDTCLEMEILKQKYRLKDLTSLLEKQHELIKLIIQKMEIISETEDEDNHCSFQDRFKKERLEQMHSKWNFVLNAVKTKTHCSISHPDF
Type: cell-based
Outline: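 HEK293 cells stably expressing mouse TRPA1, perforated-patch whole-cell recording (amphotericin B) on IonWorks Barracuda; holding 0 mV, −100 to +100 mV ramp over 300 ms every 10 s. Current evoked by 300 µM AITC, leak-subtracted, amplitude taken at +100 mV; IC50 from fitted dose-effect curves, HC030031 as plate reference.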
`CNCc1ccc(NS(=O)(=O)c2ccsc2)c(-c2ccco2)c1` [IA-30] was tested, and the IC50 was < 1000 nM. For `CNCc1ccc(-c2nccs2)c(NS(=O)(=O)c2ccccc2)c1` [IA-51, N-(5-((methylamino)methyl)-2-(thiazol-2-yl)phenyl)benzenesulfonamide], the IC50 was < 1000 nM. `CNCc1ccc(-c2cc[nH]n2)c(NS(=O)(=O)c2ccccc2)c1` [IA-55, N-(5-((methylamino)methyl)-2-(1H-pyrazol-3-yl)phenyl)benzenesulfonamide] was tested, and the IC50 was < 1000 nM. `NCc1ccc(NS(=O)(=O)c2ccsc2)c(-c2ccco2)c1` [ID-5] was tested, and the IC50 was < 1000 nM.
